Results: US20260125421A1, “ANTIVIRAL COMPOUNDS” (Hoffmann-La Roche Inc., priority 2022, published 2026)

Columns and labels:
Experiment in all cases: biochemical
HCoV-229E 3CL^pro = biological target: T1, HCoV-229E 3CL^pro (Human coronavirus 229E, UniProt P0C6X1)
T1 construct: […]; made in house; host or cells: E. coli BL21 (DE3)

SARS-CoV-2 3CL^pro = biological target: T2, SARS-CoV-2 3CL^pro (Severe acute respiratory syndrome coronavirus 2, UniProt P0DTD1)
T2 construct: […]; made in house; host or cells: Escherichia coli

MERS-CoV 3CL^pro = MERS-CoV 3CL^pro (Middle East respiratory syndrome-related coronavirus, UniProt K9N7C7)
SARS-CoV 3CL^pro = SARS-CoV 3CL^pro (Severe acute respiratory syndrome coronavirus, UniProt P0C6X7)

Sequence of MERS-CoV 3CL^pro (K9N7C7 3248-3553): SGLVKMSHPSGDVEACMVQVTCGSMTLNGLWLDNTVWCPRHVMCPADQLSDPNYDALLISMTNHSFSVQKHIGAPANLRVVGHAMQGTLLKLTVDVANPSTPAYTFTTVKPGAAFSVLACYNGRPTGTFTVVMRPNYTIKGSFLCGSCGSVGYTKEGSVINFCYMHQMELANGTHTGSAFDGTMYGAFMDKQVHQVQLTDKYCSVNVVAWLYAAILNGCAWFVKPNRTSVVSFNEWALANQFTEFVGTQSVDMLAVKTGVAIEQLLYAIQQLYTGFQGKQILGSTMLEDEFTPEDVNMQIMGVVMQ
T1 sequence (P0C6X1 2966-3267): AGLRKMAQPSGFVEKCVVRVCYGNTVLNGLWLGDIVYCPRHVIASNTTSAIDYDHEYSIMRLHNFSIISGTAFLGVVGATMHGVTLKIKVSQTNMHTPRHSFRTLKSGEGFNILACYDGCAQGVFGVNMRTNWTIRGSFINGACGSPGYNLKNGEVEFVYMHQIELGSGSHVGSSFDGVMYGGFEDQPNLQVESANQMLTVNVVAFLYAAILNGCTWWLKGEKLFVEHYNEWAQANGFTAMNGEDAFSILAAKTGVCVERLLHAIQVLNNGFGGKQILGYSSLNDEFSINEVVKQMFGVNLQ

Row | SMILES | IC50 (HCoV-229E 3CL^pro) [nM] | IC50 (SARS-CoV-2 3CL^pro) [nM] | IC50 (MERS-CoV 3CL^pro) [nM] | IC50 (SARS-CoV 3CL^pro) [nM]
1 | CC1(C)CC(CN(NC(=O)[C@@H]2[C@H]3CCC[C@H]3CN2C(=O)[C@@H](NC(=O)[C@@H]2CC2(F)F)C(C)(C)C)C(=O)[C@H](F)Cl)C(=O)N1 (mixture of isomers) [Example 3, (1S)—N-[(1S)-1-[(3S,3aS,6aR)-3-[[[(2R)-2-chloro-2-fluoro-acetyl]-[rac-(5,5-dimethyl-2-oxo-pyrrolidin-3-yl)methyl]amino]carbamoyl]-3,3a,4,5,6,6a-hexahydro-1H-cyclopenta[c]pyrrole-2-carbonyl]-2,2-dimethyl-propyl]-2,2-difluoro-cyclopropanecarboxamide] | 2520 | 23 | 850 | 28
2 | CC[C@H](C)[C@H](NC(=O)C1(F)CC1)C(=O)N1C[C@H]2[C@@H]([C@H]1C(=O)NN(C[C@@H]1CC(C)(C)NC1=O)C(=O)[C@H](F)Cl)C2(C)C [Example 1a, N-[(1S,2S)-1-[(1R,2S,5S)-2-[[[(2R)-2-chloro-2-fluoro-acetyl]-[[(3S)-5,5-dimethyl-2-oxo-pyrrolidin-3-yl]methyl]amino]carbamoyl]-6,6-dimethyl-3-azabicyclo[3.1.0]hexane-3-carbonyl]-2-methyl-butyl]-1-fluoro-cyclopropanecarboxamide] | 421 | 48 | 635 | 84
3 | CC[C@H](C)[C@H](NC(=O)C1(F)CC1)C(=O)N1C[C@H]2[C@@H]([C@H]1C(=O)NN(C[C@H]1CC(C)(C)NC1=O)C(=O)[C@H](F)Cl)C2(C)C [Example 1b, N-[(1S,2S)-1-[(1R,2S,5S)-2-[[[(2R)-2-chloro-2-fluoro-acetyl]-[[(3R)-5,5-dimethyl-2-oxo-pyrrolidin-3-yl]methyl]amino]carbamoyl]-6,6-dimethyl-3-azabicyclo[3.1.0]hexane-3-carbonyl]-2-methyl-butyl]-1-fluoro-cyclopropanecarboxamide] | 131 | 13 | 234 | 18
4 | CC1(C)C[C@@H](CN(NC(=O)[C@@H]2[C@H]3CCC[C@H]3CN2C(=O)[C@@H](NC(=O)[C@@H]2CC2(F)F)C(C)(C)C)C(=O)[C@@H](F)Cl)C(=O)N1 [Example 2a, (1S)—N-[(1S)-1-[(3S,3aS,6aR)-3-[[[(2S)-2-chloro-2-fluoro-acetyl]-[[(3S)-5,5-dimethyl-2-oxo-pyrrolidin-3-yl]methyl]amino]carbamoyl]-3,3a,4,5,6,6a-hexahydro-1H-cyclopenta[c]pyrrole-2-carbonyl]-2,2-dimethyl-propyl]-2,2-difluoro-cyclopropanecarboxamide] | 7850 | 29 | 2910 | 64
5 | CC1(C)C[C@H](CN(NC(=O)[C@@H]2[C@H]3CCC[C@H]3CN2C(=O)[C@@H](NC(=O)[C@@H]2CC2(F)F)C(C)(C)C)C(=O)[C@@H](F)Cl)C(=O)N1 [Example 2b, (1S)—N-[(1S)-1-[(3S,3aS,6aR)-3-[[[(2S)-2-chloro-2-fluoro-acetyl]-[[(3R)-5,5-dimethyl-2-oxo-pyrrolidin-3-yl]methyl]amino]carbamoyl]-3,3a,4,5,6,6a-hexahydro-1H-cyclopenta[c]pyrrole-2-carbonyl]-2,2-dimethyl-propyl]-2,2-difluoro-cyclopropanecarboxamide] | > 10000 | 918 | > 10000 | 1720
6 | CC1(C)C[C@@H](CN(NC(=O)[C@@H]2[C@H]3CCC[C@H]3CN2C(=O)[C@@H](NC(=O)[C@@H]2CC2(F)F)C(C)(C)C)C(=O)[C@H](F)Cl)C(=O)N1 [Example 4, (1S)-N-[(1S)-1-[(3S,3aS,6aR)-3-[[[(2R)-2-chloro-2-fluoro-acetyl]-[[(3S)-5,5-dimethyl-2-oxo-pyrrolidin-3-yl]methyl]amino]carbamoyl]-3,3a,4,5,6,6a-hexahydro-1H-cyclopenta[c]pyrrole-2-carbonyl]-2,2-dimethyl-propyl]-2,2-difluoro-cyclopropanecarboxamide] | 838 | 11 | 518 | 15
7 | CC1(C)C[C@H](CN(NC(=O)[C@@H]2[C@H]3CCC[C@H]3CN2C(=O)[C@@H](NC(=O)[C@@H]2CC2(F)F)C(C)(C)C)C(=O)[C@H](F)Cl)C(=O)N1 [Example 5, (1S)-N-[(1S)-1-[(3S,3aS,6aR)-3-[[[(2R)-2-chloro-2-fluoro-acetyl]-[[(3R)-5,5-dimethyl-2-oxo-pyrrolidin-3-yl]methyl]amino]carbamoyl]-3,3a,4,5,6,6a-hexahydro-1H-cyclopenta[c]pyrrole-2-carbonyl]-2,2-dimethyl-propyl]-2,2-difluoro-cyclopropanecarboxamide] | 4100 | 81 | 1240 | 137
8 | CC1(C)C[C@@H](CN(NC(=O)[C@@H]2[C@H]3CCC[C@H]3CN2C(=O)[C@@H](NC(=O)C(F)F)C(C)(C)C)C(=O)[C@@H](F)Cl)C(=O)N1 [Example 6, N-[(1S)-1-[(3S,3aS,6aR)-3-[[[(2S)-2-chloro-2-fluoro-acetyl]-[[(3S)-5,5-dimethyl-2-oxo-pyrrolidin-3-yl]methyl]amino]carbamoyl]-3,3a,4,5,6,6a-hexahydro-1H-cyclopenta[c]pyrrole-2-carbonyl]-2,2-dimethyl-propyl]-2,2-difluoro-acetamide] | > 10000 | 30 | 2950 | 41
9 | CCC(CC)[C@H](NC(=O)C(F)F)C(=O)N1C[C@@H]2CCC[C@@H]2[C@H]1C(=O)NN(C[C@@H]1CC(C)(C)NC1=O)C(=O)[C@H](F)Cl [Example 7, N-[(1S)-1-[(3S,3aS,6aR)-3-[[[(2R)-2-chloro-2-fluoro-acetyl]-[[(3S)-5,5-dimethyl-2-oxo-pyrrolidin-3-yl]methyl]amino]carbamoyl]-3,3a,4,5,6,6a-hexahydro-1H-cyclopenta[c]pyrrole-2-carbonyl]-2-ethyl-butyl]-2,2-difluoro-acetamide] | 130 | 7 | 162 | 9
10 | CCC(CC)[C@H](NC(=O)C(F)F)C(=O)N1C[C@@H]2CCC[C@@H]2[C@H]1C(=O)NN(C[C@H]1CC(C)(C)NC1=O)C(=O)[C@H](F)Cl [Example 8] | 6710 | 129 | 3020 | 256
11 | CCC(CC)[C@H](NC(=O)[C@H](F)Cl)C(=O)N1C[C@@H]2CCC[C@@H]2[C@H]1C(=O)NN(C[C@@H]1CC(C)(C)NC1=O)C(=O)[C@H](F)Cl [Example 9, (2R)-N-[(1S)-1-[(3S,3aS,6aR)-3-[[[(2R)-2-chloro-2-fluoro-acetyl]-[[(3S)-5,5-dimethyl-2-oxo-pyrrolidin-3-yl]methyl]amino]carbamoyl]-3,3a,4,5,6,6a-hexahydro-1H-cyclopenta[c]pyrrole-2-carbonyl]-2-ethyl-butyl]-2-chloro-2-fluoro-acetamide] | 241 | 7 | 250 | 7
12 | CC1(C)C[C@H](CN(NC(=O)[C@@H]2[C@H]3CCC[C@H]3CN2C(=O)[C@@H](NC(=O)C(F)F)C(C)(C)C)C(=O)[C@H](F)Cl)C(=O)N1 [Example 10, N-[(1S)-1-[(3S,3aS,6aR)-3-[[[(2R)-2-chloro-2-fluoro-acetyl]-[[(3R)-5,5-dimethyl-2-oxo-pyrrolidin-3-yl]methyl]amino]carbamoyl]-3,3a,4,5,6,6a-hexahydro-1H-cyclopenta[c]pyrrole-2-carbonyl]-2,2-dimethyl-propyl]-2,2-difluoro-acetamide] | 3040 | 31 | 794 | 53
13 | CC1(C)C[C@@H](CN(NC(=O)[C@@H]2[C@H]3CCC[C@H]3CN2C(=O)[C@@H](NC(=O)C(F)F)C(C)(C)C)C(=O)[C@H](F)Cl)C(=O)N1 [Example 11, N-[(1S)-1-[(3S,3aS,6aR)-3-[[[(2R)-2-chloro-2-fluoro-acetyl]-[[(3S)-5,5-dimethyl-2-oxo-pyrrolidin-3-yl]methyl]amino]carbamoyl]-3,3a,4,5,6,6a-hexahydro-1H-cyclopenta[c]pyrrole-2-carbonyl]-2,2-dimethyl-propyl]-2,2-difluoro-acetamide] | 1690 | 9 | 909 | 14
14 | CCC(CC)[C@H](NC(=O)C(F)F)C(=O)N1C[C@@H]2CCC[C@@H]2[C@H]1C(=O)NN(C[C@@H]1CC(C)(C)NC1=O)C(=O)[C@@H](F)Cl [Example 12, N-[(1S)-1-[(3S,3aS,6aR)-3-[[[(2S)-2-chloro-2-fluoro-acetyl]-[[(3S)-5,5-dimethyl-2-oxo-pyrrolidin-3-yl]methyl]amino]carbamoyl]-3,3a,4,5,6,6a-hexahydro-1H-cyclopenta[c]pyrrole-2-carbonyl]-2-ethyl-butyl]-2,2-difluoro-acetamide] | 1240 | 9 | 555 | 13
15 | CCC(CC)[C@H](NC(=O)[C@@H](F)Cl)C(=O)N1C[C@@H]2CCC[C@@H]2[C@H]1C(=O)NN(C[C@@H]1CC(C)(C)NC1=O)C(=O)[C@@H](F)Cl [Example 13, (2S)-N-[(1S)-1-[(3S,3aS,6aR)-3-[[[(2S)-2-chloro-2-fluoro-acetyl]-[[(3S)-5,5-dimethyl-2-oxo-pyrrolidin-3-yl]methyl]amino]carbamoyl]-3,3a,4,5,6,6a-hexahydro-1H-cyclopenta[c]pyrrole-2-carbonyl]-2-ethyl-butyl]-2-chloro-2-fluoro-acetamide] | 401 | 9 | 263 | 11
